According to article PMC6797691, “Towards the understanding of the enzymatic cleavage of polyisoprene by the dihaem-dioxygenase RoxA” (AMB Express, 2019):

Molecular target: RoxA (RoxA-Wt, rubber oxygenase A) (Xanthomonas sp. 35Y, UniProt Q7X0P3)
Details: RoxA as isolated (oxygenated haem), pyridine 2 mM, pH 7; N-terminal haem iron, displaces bound dioxygen

RoxA (RoxA-Wt, rubber oxygenase A), sequence (Q7X0P3 entry or part of it): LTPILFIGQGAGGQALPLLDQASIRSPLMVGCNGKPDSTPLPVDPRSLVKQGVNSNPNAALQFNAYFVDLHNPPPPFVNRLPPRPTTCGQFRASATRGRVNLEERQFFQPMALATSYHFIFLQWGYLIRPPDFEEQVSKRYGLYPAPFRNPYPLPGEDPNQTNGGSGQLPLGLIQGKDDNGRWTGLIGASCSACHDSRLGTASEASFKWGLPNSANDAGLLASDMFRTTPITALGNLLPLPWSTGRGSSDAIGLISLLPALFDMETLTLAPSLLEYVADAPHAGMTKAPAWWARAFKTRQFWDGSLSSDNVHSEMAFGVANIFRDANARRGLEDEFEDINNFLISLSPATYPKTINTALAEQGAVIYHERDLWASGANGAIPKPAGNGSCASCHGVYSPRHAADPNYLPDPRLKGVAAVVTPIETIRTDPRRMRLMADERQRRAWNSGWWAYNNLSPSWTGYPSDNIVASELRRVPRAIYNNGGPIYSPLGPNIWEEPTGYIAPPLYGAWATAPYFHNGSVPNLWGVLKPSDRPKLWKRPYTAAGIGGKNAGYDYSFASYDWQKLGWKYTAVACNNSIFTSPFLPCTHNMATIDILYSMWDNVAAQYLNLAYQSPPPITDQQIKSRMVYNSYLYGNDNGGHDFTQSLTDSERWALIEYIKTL

**Q.** With `c1ccncc1` [pyridine] as the molecule, how does the “UV-vis spectroscopy (549 nm band), EPR” value read?
**A.** displacement of haem-bound dioxygen by N-heterocycles that then serve as artificial ligands to a ferrous haem
